Test results from patent US20040010001A1, “Methods and compositions for modulating cell proliferation and cell death” (priority 1999, published 2004).
Read-outs that look alike come from different tables or passages of the source.

What was measured:
Assay type in all cases: cell-based
[1] = system: rat primary tumors, histocultures; experiment: Drug effect in histocultures of rat primary tumors (inhibition of 3H-thymidine incorporation)
[2] = system: rat lymph node metastasis cells, monolayers; experiment: Drug effect in monolayers of rat lymph node metastasis cells (inhibition of bromodeoxyuridine incorporation); conditions: 96 h, read-out: Concentration producing 50% inhibition
[3] = system: Human breast BC19 (subline of MCF7 transfected with mdr1); experiment: FGF-induced resistance, inhibition of BrdU incorporation; conditions: read-out: Drug concentration needed to produce 50% inhibition
How it was run: (§1)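 Monolayers were pretreated for 96 h with human recombinant aFGF and/or bFGF in medium with 1% FBS (protein adjusted to 2 mg/ml, renewed every other day) and then drug-treated for 96 h. Antiproliferative effect was read as inhibition of BrdU incorporation.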

Human breast MCF7 = experiment: as above; conditions: read-out: Drug concentration needed to produce 50% inhibition
How it was run: as §1

Human colon HT-29 = experiment: as above; conditions: read-out: Drug concentration needed to produce 50% inhibition
How it was run: as §1

Human lung A459 = experiment: as above; conditions: read-out: Drug concentration needed to produce 50% inhibition
How it was run: as §1

Human pharynx FaDu = experiment: as above; conditions: read-out: Drug concentration needed to produce 50% inhibition
How it was run: as §1

Human prostate PC3 = experiment: as above; conditions: Homo sapiens, read-out: Drug concentration needed to produce 50% inhibition
How it was run: as §1

Rat prostate MAT-LyLu = experiment: as above; conditions: read-out: Drug concentration needed to produce 50% inhibition
How it was run: as §1

[4] = system: Human prostate PC3 tumor cells; experiment: Drug treatment and extracellular bFGF (ELISA), LDH release, cell number; conditions: for Extracellular bFGF, % of control / Extracellular concentration bFGF / Extracellular LDH, % of control: 72 hours
[5] = 96 h, r-aFGF + r-bFGF 0.04 ± 1 ng/ml
[6] = 96 h, r-aFGF + r-bFGF 0.08 ± 1 ng/ml
[7] = 96 h, r-aFGF + r-bFGF 0.64 ± 1 ng/ml
[8] = 96 h, r-aFGF + r-bFGF 1 ± 1 ng/ml

CC(=O)O[C@H]1C(=O)[C@@]2(C)[C@H]([C@H](OC(=O)c3ccccc3)[C@]3(O)C[C@H](OC(=O)[C@H](O)[C@@H](NC(=O)c4ccccc4)c4ccccc4)C(C)=C1C3(C)C)[C@]1(OC(C)=O)CO[C@@H]1C[C@@H]2O [Paclitaxel]
inhibition at 10 µM [1]: < 50%
IC30 (concentration producing 30% inhibition) ([1]; 24 h, read-out: Concentration producing 50% inhibition (data shown are the concentrations that produced 30% inhibition)): > 14 nM
IC50 ([2]; Monolayers (passage 0)): 32.9 ± 3.6 nM
IC50 ([2]; Monolayers (passage 1)): 21.8 ± 0.9 nM
IC50 ([2]; Monolayers (passage 2)): 15 ± 0.9 nM
IC50 ([2]; Monolayers (passage 3)): 11.7 ± 0.3 nM
IC50 ([3]; r-bFGF 0 ng/ml): 59.6 nM
IC50 ([3]; r-bFGF 0.01 ng/ml): 112 nM
IC50 ([3]; r-bFGF 0.1 ng/ml): 183 nM
IC50 ([3]; r-bFGF 1 ng/ml): 236 nM
IC50 (Human breast MCF7; MCF7, r-bFGF 0 ng/ml): 0.32 nM
IC50 (Human breast MCF7; MCF7, r-bFGF 0.01 ng/ml): 0.45 nM
IC50 (Human breast MCF7; MCF7, r-bFGF 0.1 ng/ml): 0.84 nM
IC50 (Human breast MCF7; MCF7, r-bFGF 1 ng/ml): 1.3 nM
IC50 (Human colon HT-29; HT-29, 96 h, r-aFGF + r-bFGF 0 ng/ml): 2.2 nM
IC50 (Human colon HT-29; HT-29, 96 h, r-aFGF + r-bFGF 0.04 ± 1 ng/ml): 2 nM
IC50 (Human colon HT-29; HT-29, 96 h, r-aFGF + r-bFGF 0.08 ± 1 ng/ml): 2 nM
IC50 (Human colon HT-29; HT-29, 96 h, r-aFGF + r-bFGF 0.16 ± 1 ng/ml): 2.1 nM
IC50 (Human colon HT-29; HT-29, 96 h, r-aFGF + r-bFGF 0.64 ± 1 ng/ml): 6.2 nM
IC50 (Human colon HT-29; HT-29, r-aFGF 0 ng/ml): 2.1 nM
IC50 (Human colon HT-29; HT-29, r-aFGF 1 ng/ml): 2 nM
IC50 (Human colon HT-29; HT-29, r-aFGF 10 ng/ml): 1.9 nM
IC50 (Human colon HT-29; HT-29, r-aFGF 50 ng/ml): 2 nM
IC50 (Human colon HT-29; HT-29, r-aFGF + r-bFGF 1 ± 1 ng/ml): 10.8 nM
IC50 (Human colon HT-29; HT-29, r-bFGF 0 ng/ml): 2.1 nM
IC50 (Human colon HT-29; HT-29, r-bFGF 1 ng/ml): 2 nM
IC50 (Human colon HT-29; HT-29, r-bFGF 10 ng/ml): 1.9 nM
IC50 (Human colon HT-29; HT-29, r-bFGF 50 ng/ml): 2 nM
IC50 (Human lung A459; A459, r-bFGF 0 ng/ml): 0.87 nM
IC50 (Human lung A459; A459, r-bFGF 1 ng/ml): 0.9 nM
IC50 (Human lung A459; A459, r-bFGF 10 ng/ml): 1.07 nM
IC50 (Human lung A459; A459, r-bFGF 50 ng/ml): 1.22 nM
IC50 (Human pharynx FaDu; 96 h, r-aFGF + r-bFGF 0 ng/ml): 0.82 nM
IC50 (Human pharynx FaDu; [5]): 0.84 nM
IC50 (Human pharynx FaDu; [6]): 0.82 nM
IC50 (Human pharynx FaDu; 96 h, r-aFGF + r-bFGF 0.16 ± 1 ng/ml): 0.81 nM
IC50 (Human pharynx FaDu; 96 h, r-aFGF + r-bFGF 0.32 ± 1 ng/ml): 0.84 nM
IC50 (Human pharynx FaDu; [7]): 2.01 nM
IC50 (Human pharynx FaDu; [8]): 3.5 nM
IC50 (Human pharynx FaDu; r-aFGF 0 ng/ml): 0.82 nM
IC50 (Human pharynx FaDu; r-aFGF 1 ng/ml): 0.8 nM
IC50 (Human pharynx FaDu; r-aFGF 10 ng/ml): 0.82 nM
IC50 (Human pharynx FaDu; r-aFGF 50 ng/ml): 0.83 nM
IC50 (Human pharynx FaDu; r-bFGF 0 ng/ml): 0.77 nM
IC50 (Human pharynx FaDu; r-bFGF 1 ng/ml): 0.79 nM
IC50 (Human pharynx FaDu; r-bFGF 10 ng/ml): 0.74 nM
IC50 (Human pharynx FaDu; r-bFGF 50 ng/ml): 0.82 nM
IC50 (Human prostate PC3; 96 h, r-aFGF + r-bFGF 0 ng/ml): 1.2 nM
IC50 (Human prostate PC3; [5]): 1.2 nM
IC50 (Human prostate PC3; [6]): 2.1 nM
IC50 (Human prostate PC3; [7]): 5.8 nM
IC50 (Human prostate PC3; [8]): 6.9 nM
IC50 (Human prostate PC3; 96 h, r-aFGF + r-bFGF): 3.1 nM
IC50 (Human prostate PC3; r-aFGF 0 ng/ml): 1.2 nM
IC50 (Human prostate PC3; r-aFGF 1 ng/ml): 1.2 nM
IC50 (Human prostate PC3; r-aFGF 10 ng/ml): 1.1 nM
IC50 (Human prostate PC3; r-aFGF 50 ng/ml): 1.2 nM
IC50 (Human prostate PC3; r-bFGF 0 ng/ml): 1.2 nM
IC50 (Human prostate PC3; r-bFGF 1 ng/ml): 1.2 nM
IC50 (Human prostate PC3; r-bFGF 10 ng/ml): 2.1 nM
IC50 (Human prostate PC3; r-bFGF 50 ng/ml): 3.3 nM
IC50 (Rat prostate MAT-LyLu; r-bFGF 0 ng/ml): 12.7 nM
IC50 (Rat prostate MAT-LyLu; r-bFGF 1 ng/ml): 16.3 nM
IC50 (Rat prostate MAT-LyLu; r-bFGF 10 ng/ml): 47.8 nM
IC50 (Rat prostate MAT-LyLu; r-bFGF 50 ng/ml): 214 nM
Remaining cell number at 72 hours (% of control) ([4]; drug concentration 2.5 NM): 87%
Remaining cell number at 72 hours × 10^6 ([4]; drug concentration 2.5 NM): 2.0 × 10^6
Extracellular bFGF, % of control ([4]; drug concentration 2.5 NM): 347 % of control
Extracellular concentration bFGF ([4]; drug concentration 2.5 NM): 19.5 pg/mL
Remaining cell number at 72 hours (% of control) ([4]; drug concentration 5 NM): 43%
Remaining cell number at 72 hours × 10^6 ([4]; drug concentration 5 NM): 1.0 × 10^6
Extracellular LDH, % of control ([4]; drug concentration 5 NM): 437 % of control
Extracellular bFGF, % of control ([4]; drug concentration 5 NM): 1358 % of control
Extracellular concentration bFGF ([4]; drug concentration 5 NM): 76.3 pg/mL
Remaining cell number at 72 hours (% of control) ([4]; drug concentration 10 NM): 22%
Remaining cell number at 72 hours × 10^6 ([4]; drug concentration 10 NM): 0.5 × 10^6
Extracellular LDH, % of control ([4]; drug concentration 10 NM): 705 % of control
Extracellular bFGF, % of control ([4]; drug concentration 10 NM): 2917 % of control
Extracellular concentration bFGF ([4]; drug concentration 10 NM): 164 pg/mL
